Results published in patent US6150385A, “1,3,4-thiadiazoles useful for the treatment of CMV infections” (Pharmacia & Upjohn Company, priority 1999, dated 2000).

Target: T1, HCMV polymerase (Human cytomegalovirus, UniProt P08546)
T1 construct: made in house; host or cells: SF-9 insect cells infected with recombinant baculovirus
Experiment: HCMV polymerase assay (scintillation proximity assay)
Assay type: biochemical
Conditions: percentage of inhibition at 25 μM concentration in CMV polymerase assay
Protocol: The compounds of the present invention are tested in an polymerase assay to show activity described below, which is indicative of a compound's activity and thus of its use as an anti-viral agent.
The HCMV polymerase assay is performed using a scintillation proximity assay (SPA) as described in several references, such as N. D. Cook, et al., Pharmaceutical Manufacturing International, pages 49-53 (1992); K. Takeuchi, Laboratory Practice, September issue (1992); U.S. Pat. No. 4,568,649 (1986); which are incorporated by reference herein. Reactions are performed in 96-well plates. The assay is conducted in 100 μl volume with 5.4 mM HEPES (pH 7.5), 11.7 mM KCl, 4.5 mM MgCl2, 0.36 mg/ml BSA, and 90 nM ^3 H-dTTP. Assays are run with and without CHAPS, (3-[(3-Cholamidopropyl)-dimethylammonio]-1-propanesulfonate) at a final concentration of 2 mM. HCMV is diluted in enzyme dilution buffer containing 50% glycerol, 250 mM NaCl, 10 mM HEPES (pH 7.5), 100 μg/ml BSA, and 0.01% sodium azide. The HCMV polymerase, which is expressed in recombinant baculovirus-infected SF-9 cells and purified according to literature procedures, is added at 10% (or 10 μl) of the final reaction volume, i.e., 100 μl. Compounds are diluted in 50% DMSO and 10 μl are added to each well. Control wells contain an equivalent concentration of DMSO. Unless noted otherwise, reactions are initiated via the addition of 6 nM biotinylated poly(dA)-oligo(dT) template/primer to reaction mixtures containing the enzyme, substrate, and compounds of interest. Plates are incubated in a 25° C. or 37° C. H2 O bath and terminated via the addition of 40 μl/reaction of 0.5 M EDTA (pH 8) per well. Reactions are terminated within the time-frame during which substrate incorporation is linear and varied depending upon the enzyme and conditions used, i.e., 30 min. for HCMV polymerase. Ten μl of streptavidin-SPA beads (20 mg/ml in PBS/10% glycerol) are added following termination of the reaction. Plates are incubated 10 min. at 37° C., then equilibrated to room temperature, and counted on a Packard Topcount.
In TABLE 1, "MS" refers to mass spectral data, "% inhib" refers to percentage of inhibition at 25 μM concentration in CMV polymerase assay.

T1 sequence (P08546 whole entry): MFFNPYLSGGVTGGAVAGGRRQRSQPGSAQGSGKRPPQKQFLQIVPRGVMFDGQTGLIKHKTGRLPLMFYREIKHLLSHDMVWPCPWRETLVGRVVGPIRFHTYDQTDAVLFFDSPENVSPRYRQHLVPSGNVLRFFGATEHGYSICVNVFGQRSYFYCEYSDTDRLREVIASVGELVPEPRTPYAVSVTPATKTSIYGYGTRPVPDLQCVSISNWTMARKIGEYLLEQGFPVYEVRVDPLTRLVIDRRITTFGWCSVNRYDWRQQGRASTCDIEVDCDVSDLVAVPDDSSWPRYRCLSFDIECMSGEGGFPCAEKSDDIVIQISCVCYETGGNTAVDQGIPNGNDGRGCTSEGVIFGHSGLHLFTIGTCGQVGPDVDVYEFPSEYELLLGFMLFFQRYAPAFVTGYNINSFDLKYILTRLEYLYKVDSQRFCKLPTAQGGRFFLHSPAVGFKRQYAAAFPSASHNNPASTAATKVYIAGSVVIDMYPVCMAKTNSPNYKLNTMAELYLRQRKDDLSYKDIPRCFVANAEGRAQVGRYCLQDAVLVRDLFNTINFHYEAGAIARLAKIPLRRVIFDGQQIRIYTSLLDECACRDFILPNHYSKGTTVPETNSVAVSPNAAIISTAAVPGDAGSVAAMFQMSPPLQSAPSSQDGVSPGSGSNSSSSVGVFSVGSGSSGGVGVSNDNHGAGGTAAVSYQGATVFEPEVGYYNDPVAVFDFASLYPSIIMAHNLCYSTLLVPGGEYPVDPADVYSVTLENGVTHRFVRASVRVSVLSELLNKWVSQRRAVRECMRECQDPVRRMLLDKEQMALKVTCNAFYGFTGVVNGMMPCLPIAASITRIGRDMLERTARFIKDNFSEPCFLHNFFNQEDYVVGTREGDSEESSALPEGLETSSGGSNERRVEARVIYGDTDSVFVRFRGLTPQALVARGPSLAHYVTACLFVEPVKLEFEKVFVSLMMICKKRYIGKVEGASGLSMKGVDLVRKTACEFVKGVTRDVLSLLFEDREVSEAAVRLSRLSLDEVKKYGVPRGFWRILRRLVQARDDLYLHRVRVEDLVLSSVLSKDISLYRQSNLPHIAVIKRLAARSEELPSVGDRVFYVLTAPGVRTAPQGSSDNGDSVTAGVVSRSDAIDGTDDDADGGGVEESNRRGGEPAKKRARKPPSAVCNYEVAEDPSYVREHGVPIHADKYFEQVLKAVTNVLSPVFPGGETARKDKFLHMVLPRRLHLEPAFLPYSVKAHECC

Row | SMILES | inhibition at 25 µM | % Inhib
1 | O=C(/C=C/c1ccccc1Cl)Nc1nnc(NCC2CC2)s1 [compound 34, (E)-3-(2-chlorophenyl)-N-{5-[(cyclopropylmethyl)amino]-1,3,4-thiadiazol-2-yl}-2-propenamide] | 89.9% | –
2 | CC(C)c1cc(C(C)C)c(C(=O)Nc2nnc(NCc3ccc(S(N)(=O)=O)cc3)s2)c(C(C)C)c1 [compound 35, N-(5-{[4-(aminosulfonyl)benzyl]amino}-1,3,4-thiadiazol-2-yl)-2,4,6-triisopropylbenzamide] | 89.7% | –
3 | CC(C)c1cc(C(C)C)c(C(=O)Nc2nnc(NCCCNC3CCCCC3)s2)c(C(C)C)c1 [compound 36, N-(5-{[3-(cyclohexylamino)propyl]amino}-1,3,4-thiadiazol-2-yl)-2,4,6-triisopropylbenzamide] | 87.6% | –
4 | O=C(Nc1nnc(NCCCNC2CCCCC2)s1)c1c(Cl)cccc1Cl [compound 37, 2,6-dichloro-N-(5-{[3-(cyclohexylamino)propyl]amino}-1,3,4-thiadiazol-2-yl)benzamide] | 87.4% | –
5 | CCCCCCCC/C=C/CCCCCCCC(=O)Nc1nnc(NCC(c2ccccc2)c2ccccc2)s1 [compound 38, (E)-N-{5-[(2,2-diphenylethyl)amino]-1,3,4-thiadiazol-2-yl}-9-octadecenamide] | 87.3% | –
6 | O=C(Nc1nnc(NCc2cccs2)s1)c1ccc2c(c1)C(=O)OC2=O [compound 39, 1,3-dioxo-N-{5-[(2-thienylmethyl)amino]-1,3,4-thiadiazol-2-yl}-1,3-dihydro-2-benzofuran-5-carboxamide] | 87.1% | –
7 | O=C(Nc1nnc(NC2CCc3ccccc32)s1)c1ccc2c(c1)C(=O)OC2=O (stereo not shown) [compound 40, N-[5-(2,3-dihydro-1H-inden-1-ylamino)-1,3,4-thiadiazol-2-yl]-1,3-dioxo-1,3-dihydro-2-benzofuran-5-carboxamide] | 86.3% | –
8 | CCCCCCCC/C=C/CCCCCCCC(=O)Nc1nnc(NCCc2cccs2)s1 [compound 41, (E)-N-(5-{[2-(2-thienyl)ethyl]amino}-1,3,4-thiadiazol-2-yl)-9-octadecenamide] | 85.7% | –
9 | CCCCCCCC/C=C/CCCCCCCC(=O)Nc1nnc(NCc2cccs2)s1 [compound 42, (E)-N-{5-[(2-thienylmethyl)amino]-1,3,4-thiadiazol-2-yl}-9-octadecenamide] | 84.6% | –
10 | CCOc1ccc2ccccc2c1C(=O)Nc1nnc(NC2CCN(Cc3ccccc3)CC2)s1 [compound 45, N-{5-[(1-benzyl-4-piperidinyl)amino]-1,3,4-thiadiazol-2-yl}-2-ethoxy-1-naphthamide] | 83.1% | –
11 | N#Cc1ccc(C(=O)Nc2nnc(NCCC(c3ccccc3)c3ccccc3)s2)cc1 [compound 46, 4-cyano-N-{5-[(3,3-diphenylpropyl)amino]-1,3,4-thiadiazol-2-yl}benzamide] | 82.3% | –
12 | CCCCCCCC/C=C/CCCCCCCC(=O)Nc1nnc(NCc2ccc(F)cc2)s1 [compound 48, (E)-N-{5-[(4-fluorobenzyl)amino]-1,3,4-thiadiazol-2-yl}-9-octadecenamide] | 81.5% | –
13 | CCCCCCCCCCCNc1nnc(NC(=O)c2ccc(S(=O)(=O)F)cc2)s1 [compound 49, 4-({[5-(undecylamino)-1,3,4-thiadiazol-2-yl]amino}carbonyl)benzenesulfonyl fluoride] | – | 80.3%
14 | CCCCCCCC/C=C/CCCCCCCC(=O)Nc1nnc(NCCCCCCCCCCC)s1 [compound 51, (E)-N-[5-(undecylamino)-1,3,4-thiadiazol-2-yl]-9-octadecenamide] | 79.5% | –
15 | CCCCCCCC/C=C/CCCCCCCC(=O)Nc1nnc(NCc2ccc3c(c2)OCO3)s1 [compound 53, (E)-N-{5-[(1,3-benzodioxol-5-ylmethyl)amino]-1,3,4-thiadiazol-2-yl}-9-octadecenamide] | 77.9% | –
16 | CCOc1ccc2ccccc2c1C(=O)Nc1nnc(NCC(c2ccccc2)c2ccccc2)s1 [compound 55, N-{5-[(2,2-diphenylethyl)amino]-1,3,4-thiadiazol-2-yl}-2-ethoxy-1-naphthamide] | 77.6% | –
17 | O=C(Nc1nnc(NCC(c2ccccc2)c2ccccc2)s1)c1c(Cl)cccc1Cl [compound 56, 2,6-dichloro-N-{5-[(2,2-diphenylethyl)amino]-1,3,4-thiadiazol-2-yl}benzamide] | 77.4% | –
18 | CCCCCCCC/C=C/CCCCCCCC(=O)Nc1nnc(NCCSc2ccccc2)s1 [compound 58, (E)-N-(5-{[2-(phenylsulfanyl)ethyl]amino}-1,3,4-thiadiazol-2-yl)-9-octadecenamide] | 75.8% | –
19 | CCOc1ccc2ccccc2c1C(=O)Nc1nnc(NCCC(c2ccccc2)c2ccccc2)s1 [compound 61, N-{5-[(3,3-diphenylpropyl)amino]-1,3,4-thiadiazol-2-yl}-2-ethoxy-1-naphthamide] | 74.2% | –
20 | O=C(Nc1nnc(NCCCNC2CCCCC2)s1)c1cc2ccccc2s1 [compound 62, N-(5-{[3-(cyclohexylamino)propyl]amino}-1,3,4-thiadiazol-2-yl)-1-benzothiophene-2-carboxamide] | 74% | –
21 | CCCCCCCC/C=C/CCCCCCCC(=O)Nc1nnc(NCCC(c2ccccc2)c2ccccc2)s1 [compound 64, (E)-N-{5-[(3,3-diphenylpropyl)amino]-1,3,4-thiadiazol-2-yl}-9-octadecenamide] | 73.6% | –
22 | CCCCCCCCCCCNc1nnc(NC(=O)c2ccc(C#N)cc2)s1 [compound 65, 4-cyano-N-[5-(undecylamino)-1,3,4-thiadiazol-2-yl]benzamide] | 72.2% | –

More lines, main results first:

Row | inhibition at 25 µM | SMILES | % Inhib
23 | 90.6% | NS(=O)(=O)c1ccc(CNc2nnc(NC(=O)/C=C/c3ccccc3)s2)cc1 [compound 32, (E)-N-(5-{[4-(aminosulfonyl)benzyl]amino}-1,3,4-thiadiazol-2-yl)-3-phenyl-2-propenamide] | –
24 | 90.1% | O=C(Nc1nnc(NCCSc2ccccc2)s1)c1ccc2c(c1)C(=O)OC2=O [compound 33, 1,3-dioxo-N-(5-{[2-(phenylsulfanyl)ethyl]amino}-1,3,4-thiadiazol-2-yl)-1,3-dihydro-2-benzofuran-5-carboxamide] | –
25 | 83.9% | CCOc1ccc2ccccc2c1C(=O)Nc1nnc(NCc2ccc3c(c2)OCO3)s1 [compound 43, N-{5-[(1,3-benzodioxol-5-ylmethyl)amino]-1,3,4-thiadiazol-2-yl}-2-ethoxy-1-naphthamide] | –
26 | 83.3% | O=C(Nc1nnc(NCc2cccc3ccccc23)s1)c1ccc([N+](=O)[O-])o1 [compound 44, N-{5-[(1-naphthylmethyl)amino]-1,3,4-thiadiazol-2-yl}-5-nitro-2-furamide] | –
27 | 81.6% | O=C(Nc1nnc(NCCc2c[nH]c3ccccc23)s1)c1ccc([N+](=O)[O-])o1 [compound 47, N-(5-{[2-(1H-indol-3-yl)ethyl]amino}-1,3,4-thiadiazol-2-yl)-5-nitro-2-furamide] | –
28 | 79.8% | NS(=O)(=O)c1ccc(CCNc2nnc(NC(=O)/C=C/c3ccccc3)s2)cc1 [compound 50, (E)-N-(5-{[4-(aminosulfonyl)phenethyl]amino}-1,3,4-thiadiazol-2-yl)-3-phenyl-2-propenamide] | –
29 | 78.7% | O=C(Nc1nnc(NCCCCc2ccccc2)s1)c1cc2ccccc2s1 [compound 52, N-{5-[(4-phenylbutyl)amino]-1,3,4-thiadiazol-2-yl}-1-benzothiophen-2-carboxamide] | –
30 | 77.7% | O=C(Nc1nnc(NCc2ccncc2)s1)c1ccc2c(c1)C(=O)OC2=O [compound 54, 1,3-dioxo-N-{5-[(4-pyridinylmethyl)amino]-1,3,4-thiadiazol-2-yl}-1,3-dihydro-2-benzofuran-5-carboxamide] | –
31 | 76.3% | NS(=O)(=O)c1ccc(CNc2nnc(NC(=O)c3ccc(I)cc3)s2)cc1 [compound 57, N-(5-{[4-(aminosulfonyl)benzyl]amino}-1,3,4-thiadiazol-2-yl)-4-iodobenzamide] | –
32 | 74.6% | O=C(Nc1nnc(NCCCCc2ccccc2)s1)c1ccc(I)cc1 [compound 59, 4-iodo-N-{5-[(4-phenylbutyl)amino]-1,3,4-thiadiazol-2-yl}benzamide] | –
33 | 74.5% | CCCCCCCCCCCNc1nnc(NC(=O)c2ccc([N+](=O)[O-])o2)s1 [compound 60, 5-nitro-N-[5-(undecylamino)-1,3,4-thiadiazol-2-yl]-2-furamide] | –
34 | 73.8% | O=C(Nc1nnc(NCCC(c2ccccc2)c2ccccc2)s1)c1c(Cl)cccc1Cl [compound 63, 2,6-dichloro-N-{5-[(3,3-diphenylpropyl)amino]1,3,4-thiadiazol-2-yl}benzamide] | –
